Data set [1] has as its target T1, Apoptosis regulator Bcl-2 (Homo sapiens, UniProt P10415). Nature of the data set: Inhibition of Bcl-2 (unknown origin) by ELISA analysis. In general terms: In an ELISA, binding on a coated surface is turned into a signal by an enzyme label.
The nature of data set [2]: Inhibition of Bcl-2/Mcl-1 in human MCF7 cells. It counts as cell-based.
Data set [3] deals with T2, Induced myeloid leukemia cell differentiation protein Mcl-1 (Homo sapiens, UniProt Q07820). The experiment in a line: Binding affinity to Mcl-1 (unknown origin) assessed as inhibition constant by TR-FRET assay. (In general: Time-resolved FRET reads energy transfer from a long-lived donor to a nearby acceptor.)
T2 sequence (Q07820 whole entry): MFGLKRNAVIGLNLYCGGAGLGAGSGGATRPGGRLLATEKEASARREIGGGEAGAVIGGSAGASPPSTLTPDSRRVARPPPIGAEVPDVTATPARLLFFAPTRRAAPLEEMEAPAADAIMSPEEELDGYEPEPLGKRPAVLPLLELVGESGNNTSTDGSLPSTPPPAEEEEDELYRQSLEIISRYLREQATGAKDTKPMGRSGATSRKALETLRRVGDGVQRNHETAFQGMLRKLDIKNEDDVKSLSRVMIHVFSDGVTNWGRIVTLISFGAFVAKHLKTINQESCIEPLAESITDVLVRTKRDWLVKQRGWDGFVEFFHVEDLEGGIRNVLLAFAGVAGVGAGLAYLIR
The test system of another data set is RS4-11. Nature of the data set: Induction of apoptosis in human RS4-11 cells. In kind it is functional, cell-based.
Data set [4] can be described thus: Half-life in human. In kind it is ADME.
Data set [5] addresses T1, Apoptosis regulator Bcl-2. The experiment in a line: Binding affinity to Bcl-2 (unknown origin) by ELISA analysis.
Data set [6] concerns the target T1, Apoptosis regulator Bcl-2. The experiment in a line: Inhibition of Flu-BakBH3 binding to GST-tagged Bcl-2 (unknown origin) preincubated for 10 mins followed by Flu-BakBH3 addition and measured after 30 mins by competitive fluorescence polarization assay. (Fluorescence polarisation rises when a labelled molecule tumbles more slowly, as on binding a larger partner.)

The target in data set [7] is T3, Bcl-2-like protein 1 (Homo sapiens, UniProt Q07817). The experiment in a line: Binding affinity to recombinant His-tagged human Bcl-xL expressed in Escherichia coli assessed as inhibition constant by SPR analysis.
T3 sequence (Q07817 whole entry): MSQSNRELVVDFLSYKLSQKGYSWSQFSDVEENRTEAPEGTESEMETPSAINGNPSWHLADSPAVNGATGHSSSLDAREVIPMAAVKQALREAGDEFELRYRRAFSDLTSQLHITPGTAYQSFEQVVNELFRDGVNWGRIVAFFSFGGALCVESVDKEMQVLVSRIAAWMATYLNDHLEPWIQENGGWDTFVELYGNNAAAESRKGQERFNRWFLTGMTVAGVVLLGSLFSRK
In the next data set the target is T4, Bcl-2-like protein 2 (Homo sapiens, UniProt Q92843).
T4 sequence (Q92843 whole entry): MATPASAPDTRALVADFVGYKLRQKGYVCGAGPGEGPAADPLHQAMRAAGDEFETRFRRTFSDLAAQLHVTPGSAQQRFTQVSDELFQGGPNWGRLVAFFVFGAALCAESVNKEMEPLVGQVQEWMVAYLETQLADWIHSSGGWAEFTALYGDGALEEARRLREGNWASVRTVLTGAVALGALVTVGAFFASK
Nature of the data set: Binding affinity to Bcl-w (unknown origin) assessed as inhibition constant by competitive fluorescence polarization assay.

The target in data set [8] is T1, Apoptosis regulator Bcl-2. The experiment in a line: Inhibition of Flu-BakBH3 binding to recombinant GST-tagged Bcl-2 (unknown origin) incubated for 30 mins by competitive fluorescence polarization assay.
In data set [9] the target is T1, Apoptosis regulator Bcl-2. Nature of the data set: Binding affinity to recombinant Bcl-2 (unknown origin) expressed in Escherichia coli BL21 (DE3) cells assessed as dissociation constant by MST analysis.
Data set [10] has as its target T3, Bcl-2-like protein 1. The experiment in a line: Binding affinity to Bcl-xL (unknown origin) assessed as inhibition constant.
The target in data set [11] is T1, Apoptosis regulator Bcl-2. Nature of the data set: Binding affinity to Bcl-2 (unknown origin) assessed as inhibition constant.
Data set [12] addresses T2, Induced myeloid leukemia cell differentiation protein Mcl-1. The experiment in a line: Binding affinity to Mcl-1 (unknown origin) assessed as inhibition constant.
Data set [13] deals with T1, Apoptosis regulator Bcl-2. The experiment in a line: Binding affinity to recombinant His-tagged human Bcl-2 expressed in Escherichia coli assessed as inhibition constant by SPR analysis.

Consider ten compounds from ChEMBL document CHEMBL5233252, “Single and dual target inhibitors based on Bcl-2: Promising anti-tumor agents for cancer therapy” (Eur J Med Chem, 2020).

Where a SMILES comes first, the peptide text is derived from it.

T1 sequence (P10415 whole entry): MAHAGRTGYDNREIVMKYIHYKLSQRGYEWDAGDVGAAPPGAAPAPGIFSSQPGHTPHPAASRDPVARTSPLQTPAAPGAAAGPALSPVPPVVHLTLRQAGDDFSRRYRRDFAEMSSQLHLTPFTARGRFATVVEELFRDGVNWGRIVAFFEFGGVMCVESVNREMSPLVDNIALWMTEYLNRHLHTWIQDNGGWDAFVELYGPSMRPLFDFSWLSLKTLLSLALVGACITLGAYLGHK

As to `CC(C)(C)c1ccc(C(=O)NCCN2C(=O)c3cccc4c(Sc5ccc(Br)cc5)ccc(c34)C2=O)cc1`, the IC50 (as a rule, the concentration at which inhibition is half-maximal) in data set [1] came out at 2110 nM; in data set [2] it was 7900 nM.

In the case of `CC1(C)CCC(CN2CCN(c3ccc(C(=O)NS(=O)(=O)c4ccc(NCC5CCOCC5)c([N+](=O)[O-])c4)c(Oc4cnc5[nH]ccc5c4)c3)CC2)=C(c2ccc(Cl)cc2)C1` [VENETOCLAX], in data set [3], the inhibition constant Ki (in general, a dissociation constant, usually derived from enzyme kinetics or from competition with a known ligand) is greater than 444 nM. For the same compound, in the data set with RS4-11, a half-maximal effect (EC50) was put at 3 nM. In addition, the half-life (usually the time needed for the level to fall by half in the phase considered) in data set [4] was 26 h.

Take `O=[N+]([O-])c1ccccc1Nc1nnc(-c2c[nH]c3ccccc23)o1`: the IC50 in [5] worked out at 4270 nM.

Take `Cc1cc2c(C(C)C)c(O)c(O)cc2c(O)c1-c1c(C)cc2c(C(C)C)c(O)c(O)cc2c1O` [APOGOSSYPOL]: the response in [6] was half-maximal at 2800 nM (EC50).

On to `CCCCCCCCCCCCCCCC(=O)N[C@H](C(=O)N[C@@H](C)C(=O)N[C@@H](CCC(N)=O)C(=O)N[C@@H](CCC(=O)O)C(=O)N[C@@H](CCCNC(=N)N)C(=O)N[C@@H](CCCNC(=N)N)C(=O)N[C@H](C(=O)NCC(=O)N[C@@H](CC(=O)O)C(=O)N[C@@H](CCC(=O)O)C(=O)N[C@@H](Cc1ccccc1)C(N)=O)[C@@H](C)CC)[C@@H](C)CC` (HELM PEPTIDE1{[CCCCCCCCCCCCCCCC(=O)[*:2]].I.A.Q.E.R.R.I.G.D.E.F.[am]}$$$$V2.0), for which the Ki on Bcl-2-like protein 1 [7] came to 22.2 nM.

Turning to `CC1(C)CCC(c2ccc(Cl)cc2)=C(CN2CCN(c3ccc(C(=O)NS(=O)(=O)c4ccc(N[C@H](CCN5CCOCC5)CSc5ccccc5)c(S(=O)(=O)C(F)(F)F)c4)cc3)CC2)C1` [NAVITOCLAX], the inhibitory constant (Ki) on Bcl-2-like protein 2 is no more than 1 nM.

With `CCOC(=O)C1=C(N)Oc2ccc(Br)cc2C1C(C#N)C(=O)OCC` (stereo not given), in data set [8], the IC50 worked out at 9000 nM.

For `COc1c(O)cc(O)c2c(=O)cc(-c3ccc(O)c(O)c3)oc12`, the Kd (as a rule, the concentration at which binding is half-saturated) in data set [9] came to 36100 nM.

Consider `CC1=C(C2=C(C)C(=O)C3C(C(C)C)=C(O)C(O)=CC3C2=O)C(=O)c2cc(O)c(O)c(C(C)C)c2C1=O` (stereo not given), for which the Ki at Bcl-2-like protein 1 [10] came out at 660 nM; in data set [11] it was 35 nM; in [12] it was 25 nM.

Turning to Ac-IAQERRIGDEF-NH2, the inhibitory constant (Ki) in [13] stood at 9.48 nM.
